# Patent US20030032834A1, “Aminoalcohol derivatives” (priority 2000, published 2003)
# Counter-ions that a name gives are not always drawn.
# System: increase in intravesical pressure induced by carbachol in anesthetized dog
# Assay: Effect on the increase in intravesical pressure induced by carbachol in anesthetized dog
# Assay type: in vivo
# Conditions: 0.01 mg/kg injected intravenously 5 minutes before carbachol (1.8 μg/kg); anesthetized female Beagle dogs; N = 5; Before 6.2 ± 1.1; *P < 0.01 vs Before (ANOVA)
# Procedure: Effect on the increase in intravesical pressure induced by carbachol in anesthetized dog
# Female Beagle dogs weighing 8.0-15.0 kg were fasted for 24 hours and maintained under halothane anesthesia. A 12F Foley catheter was lubricated with water soluble jelly, inserted into the urethral orifice and advanced approximately 10 cm until the balloon tip was placed well inside the bladder. The balloon was then inflated with 5 ml of room air and catheter slowly withdrawn just part the first resistance that is felt at the bladder neck. Urine was completely drained out through the catheter, and 30 ml of biological saline was infused. The catheter was connected to pressure transducer, and intravesical pressure was continuously recorded. The test compound was injected intravenously at 5 minutes before the administration of carbachol (1.8 μg/kg).
structure (smiles),measurement,value
"COC(=O)Nc1ccc(C(CCNC[C@H](O)COc2ccccc2)c2ccc(NC(=O)OC)cc2)cc1 [Test Compound (1), (2S)-1-Phenoxy-3-[3,3-bis[4-(methoxycarbonylamino)-phenyl]propylamino]-2-propanol sulfate (2:1) (crystal Form A)]",Increase in intravesical pressure (mmHg),4.9 ± 0.9* mmHg
